The target of test [1] is T1, α1S270Cβ3γ2L GABAA receptors (Homo sapiens, UniProt P14867+P18507+P28472, S297C).
T1 construct: expressed in transfected cells; host or cells: Xenopus oocytes injected with capped mRNA, 1α:1β:5γ
The test can be described thus: Drug protection from pCMBS modification (SCAMP). The conditions noted are these: results of this study (*). Also on record: key: +: SCAMP is Substituted Cysteine Modification and Protection and is positive when adding anesthetic to cysteine modifier significantly reduces persistent post-exposure effects due to covalent modification; -: Negative results are indicated by “–“ symbols. The class given is cell-based. The procedure: (§1) Experiments were performed in ND-96 buffer at room temperature (20–22°C). Oocytes were placed in a low-volume (30µl) flow chamber and impaled with borosilicate microelectrodes filled with 3M KCl (resistance 0.5–3 MΩ) and voltage-clamped at −50 mV (model OC-725C; Warner Instruments, Hamden, CT, USA). Superfusate solutions in ND-96 were delivered at 2 ml/min from glass syringe reservoirs via computer-controlled valves (VC-8; Warner Instruments), a micro-manifold (ALA-VM8; ALA Scientific Instruments, Farmingdale, NY, USA), and PTFE tubing. Currents were digitized at 200 Hz on a computer running ClampEx v8.0 software (Molecular Devices, San Jose, CA, USA). Digitized traces were filtered with a 10-Hz low-pass Bessel function, leak corrected and analyzed for peak amplitude off-line using Clampfit v8 software (Molecular Devices).
(§2) Drug protection from pCMBS modification was assessed under pCMBS exposure conditions that produced approximately half of the maximal modification ratio for each mutant receptor, and a least a value of 3. This approach balanced the magnitude of functional modification signals (smaller with less pCMBS exposure) against the challenge of using a reversibly bound ligand to competitively block an irreversible covalent cysteine-modifying reaction. […] Each oocyte was used in a single SCAMP experiment. […] Etomidate was used as a positive control for anesthetic protection in α1M236C and β3M286C mutants and as a negative control in α1S270C, α1A291C, β3L231C, γ2S301C, γ2I242C, and γ2L246C mutants. R-mTFD-MPAB was used as a positive control in α1S270C, α1A291C, β3L231C, and γ2LS301C mutants and as a negative control in α1M236C and β3M286C mutants. For each cysteine mutant and protective drug combination, five oocytes were studied.
(§3) Non-linear least squares fits and statistical analyses were performed in Prism 10.4.0. (GraphPad Software, San Diego, CA, USA). […] Protection (steric inhibition of pCMBS modification) was inferred when anesthetics produced significant reductions in modification ratios relative to control (no anesthetic) values. The statistical significance threshold was p < 0.05.

The target of test [2] is T2, α1β3M286Cγ2L GABAA receptors (Homo sapiens, UniProt P14867+P18507+P28472, M311C).
T2 construct: expressed in transfected cells; host or cells: Xenopus oocytes injected with capped mRNA, 1α:1β:5γ
The test can be described thus: Drug protection from pCMBS modification (SCAMP). It counts as cell-based. To be noted: results of this study (*); etomidate cell also cites [16]. Also on record: key: +: SCAMP is Substituted Cysteine Modification and Protection and is positive when adding anesthetic to cysteine modifier significantly reduces persistent post-exposure effects due to covalent modification; -: Negative results are indicated by “–“ symbols. How it is done: as §1, §2, §3

Test [3] deals with α1β3γ2L GABAA receptors, substituted cysteine at β3M227 (β3– M1). Set-up: key: +: Mutant-function studies are deemed positive when bulky mutations (mostly tryptophans) at the site significantly reduce positive modulation by anesthetics; -: Negative results are indicated by “–“ symbols. To be noted: previously reported; cited from earlier work.
Test [4] has as its target T3, α1β3γ2L246C GABAA receptors (Homo sapiens, UniProt P14867+P18507+P28472, L285C).
T3 construct: expressed in transfected cells; host or cells: Xenopus oocytes injected with capped mRNAs mixed 1α:1β:5γ
Nature of the test: Drug protection from pCMBS modification (SCAMP). Also on record: key: +: SCAMP is Substituted Cysteine Modification and Protection and is positive when adding anesthetic to cysteine modifier significantly reduces persistent post-exposure effects due to covalent modification; -: Negative results are indicated by “–“ symbols. The class given is cell-based. The conditions noted are these: results of this study (*); etomidate cell also cites [9]. How it is done: as §1, §2, §3

Marks after values point to notes of the source that are not given here.

T1 sequence (P14867 28-456 S297C): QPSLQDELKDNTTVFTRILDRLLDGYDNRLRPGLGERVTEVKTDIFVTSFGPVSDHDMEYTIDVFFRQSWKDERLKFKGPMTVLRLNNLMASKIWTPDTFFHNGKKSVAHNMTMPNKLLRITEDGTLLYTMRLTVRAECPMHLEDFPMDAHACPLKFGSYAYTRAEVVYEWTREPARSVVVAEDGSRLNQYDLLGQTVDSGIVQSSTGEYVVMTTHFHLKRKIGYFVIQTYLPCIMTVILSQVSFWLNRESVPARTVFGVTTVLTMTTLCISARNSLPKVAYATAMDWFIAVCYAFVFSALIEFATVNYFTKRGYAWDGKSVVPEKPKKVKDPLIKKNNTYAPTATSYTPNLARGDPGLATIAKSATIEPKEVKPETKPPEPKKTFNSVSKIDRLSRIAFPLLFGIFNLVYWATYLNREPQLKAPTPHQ
T1 sequence (P28472 26-473): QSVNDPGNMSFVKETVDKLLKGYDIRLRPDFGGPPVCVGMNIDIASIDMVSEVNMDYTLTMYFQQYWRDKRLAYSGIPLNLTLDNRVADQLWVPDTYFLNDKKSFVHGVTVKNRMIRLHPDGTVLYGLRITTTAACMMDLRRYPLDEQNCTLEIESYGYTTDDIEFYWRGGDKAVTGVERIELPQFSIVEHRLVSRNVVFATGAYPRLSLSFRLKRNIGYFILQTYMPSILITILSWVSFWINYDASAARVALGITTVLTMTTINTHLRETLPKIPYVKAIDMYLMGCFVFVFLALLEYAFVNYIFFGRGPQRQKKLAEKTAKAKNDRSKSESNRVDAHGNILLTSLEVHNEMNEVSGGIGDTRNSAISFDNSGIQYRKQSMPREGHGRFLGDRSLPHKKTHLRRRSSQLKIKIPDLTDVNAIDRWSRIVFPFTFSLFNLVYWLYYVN
T1 sequence (P18507 40-475): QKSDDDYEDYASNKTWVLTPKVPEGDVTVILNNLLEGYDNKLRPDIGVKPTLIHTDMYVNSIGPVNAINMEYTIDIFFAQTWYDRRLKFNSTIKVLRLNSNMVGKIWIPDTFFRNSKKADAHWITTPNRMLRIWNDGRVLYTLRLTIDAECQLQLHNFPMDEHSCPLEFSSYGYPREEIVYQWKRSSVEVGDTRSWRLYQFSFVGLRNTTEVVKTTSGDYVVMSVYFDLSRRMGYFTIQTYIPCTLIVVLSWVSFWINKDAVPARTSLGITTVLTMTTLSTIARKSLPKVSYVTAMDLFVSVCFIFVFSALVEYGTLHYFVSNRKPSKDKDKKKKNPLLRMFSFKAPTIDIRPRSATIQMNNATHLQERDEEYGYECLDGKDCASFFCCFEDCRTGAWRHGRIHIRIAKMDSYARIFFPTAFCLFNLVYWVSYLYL
T2 sequence (P14867 28-456): as the sequence (P14867 28-456 S297C) above, with C270S counted along it
T2 sequence (P28472 26-473 M311C): as the sequence (P28472 26-473) above, with M286C counted along it
T2 sequence (P18507 40-475): as the sequence (P18507 40-475) above
T3 sequence (P14867 28-456, stated change not applied): as the sequence (P14867 28-456 S297C) above, with C270S counted along it
T3 sequence (P28472 26-473): as the sequence (P28472 26-473) above
T3 sequence (P18507 40-475 L285C): as the sequence (P18507 40-475) above, with L246C counted along it

Consider `C=CCC1(c2cccc(C3(C(F)(F)F)N=N3)c2)C(=O)NC(=O)N(C)C1=O` (stereo not shown) [R-mTFD-MPAB, R-5-allyl-1-methyl-5-(m-trifluoromethyl-diazirynylphenyl) barbituric acid], for which, in test [1], the “SCAMP result, α1+ (M2, M3) S270” value is “+*”.

Turning to `CCOC(=O)c1cncn1[C@H](C)c1ccccc1` [etomidate, R-etomidate], the “SCAMP result, β3+ (M2, M3) M286” value in test [2] is “+^[16], *”. The “SCAMP result, β3– (M1) M227” value in test [3] was “-^[9]”. In the case of `CC(C)c1cc(C2(C(F)(F)F)N=N2)cc(C(C)C)c1CO` [pTFD-di-iPr-BnOH], the “SCAMP result, γ2– (M1) L246” value in test [4] is “+*”.

The record behind these values is article PMC12591484 (PLOS One, 2025).
